We go through two compounds from patent US11744798B2, “Injectable pharmaceutical formulation” (UPM-Kymmene Corporation, priority 2019, dated 2023).

Data set [1] can be described thus: Cumulative release study of CPF from NFC depots with solvents. The format is physicochemical. The procedure:
Cumulative release study aiming to increase the release rate of CPF and receive close to 100% cumulative result for NFC-formulations within 7 days. Following detailed tasks were performed: • Two solvents, DMSO (Dimethyl sulfoxide) and NMP (N-methyl-2-pyrrolidone), in addition to H2O were used to enhance release of CPF • 6% anionic and 1.5% native NFC were studied • Study included formulation and short in vitro dissolution studies for NFC-API depots to follow cumulative release
Cumulative release study aiming to increase cumulative result for NFC-formulations was performed with CPF, as it had clearly lower cumulative release results in previous experiments compared to MLX. 6% anionic and 1.5% native NFC were studied. Two solvents, DMSO (dimethyl sulfoxide) and NMP (N-methyl-2-pyrrolidone), in addition to H2O were used to enhance the release of CPF. The study included formulation and short in vitro dissolution studies for NFC-API depots to follow cumulative release (FIG. 7). Depots contained 50% of solvent and 50% of NFC.
However, the increase was most apparent within the first hours and first day of study, which after the release reverted to the level of pure NFC formulations.

The conditions of data set [2]: water at 25° C.; cited from earlier work.

SMILES strings stand for the structures. ≈ marks a conversion by molar mass, not a printed value.

For `CC(C(=O)O)c1ccc2c(c1)[nH]c1ccc(Cl)cc12` (stereo not drawn) [Carprofen], the “effect on release of CPF” value in data set [1] (50% DMSO in NFC depot) and in data set [1] (50% NMP in NFC depot) was “increased the release” in each case. On to `Cc1cnc(NC(=O)C2=C(O)c3ccccc3S(=O)(=O)N2C)s1` [Meloxicam], for which the solubility in water in data set [2] was 7.15 µg/mL (≈ 20.3 µM).
